Reference: patent publication US11964973B2 (priority 2019, dated 2024)
Read-outs that look alike come from different tables or passages of the source.

Assays:
DGKα = DGKα (Homo sapiens (Human), UniProt P23743); experiment: biochemical; assay type: biochemical
human DGKζ = human DGKζ (Homo sapiens (Human), UniProt Q13574); experiment: biochemical; assay type: biochemical; details: liposome (LIPGLO) assay
[1] = tested on: Human venous whole blood (IFN-γ); experiment: Human whole blood IFN-γ assay; assay type: cell-based
Procedure: Assay 10: Human Whole Blood IFN-γ Assay
Human venous whole blood (22.5 μL per well), obtained from healthy donors, was pre-treated with compounds for one hour at 37° C. in a humidified 95% air/5% CO2 incubator. The blood was stimulated with 2.5 μL anti-human CD3 and anti-CD28 mAb at a final concentration of 1 μg/mL each for 24 hours at 37° C. IFN-γ in the supernatants was measured using AlphLISA kit (Cat #AL217).

[2] = tested on: human venous whole blood, CD8 positive population (pERK); experiment: DGK human whole blood pERK assay; assay type: cell-based; details: for EC50: human whole blood pERK, read-out: DGK HWB
How it was run: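 Read-out is the pERK-positive fraction of CD8+ cells measured by flow cytometry. Donor venous blood (heparin) saw compound for one hour at 37° C before a 15-minute anti-CD3 challenge (1 μg/mL final) with cross-linking anti-mouse IgG.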

[3] = liposome (LIPGLO) assay, read-out: DGKα LIPGLO IC50
[4] = Table A, liposome (LIPGLO) assay, read-out: DGKα
[5] = human whole blood, anti-CD3 plus anti-CD28, 24 hours, read-out: INFg Whole Blood Normalized Agonist EC50
[6] = human whole blood IFN-γ, read-out: INFg Whole Blood
[7] = Homo sapiens, 24 h, human whole blood, anti-CD3 plus anti-CD28, 24 hours, read-out: INFg Whole Blood Normalized Agonist EC50

Sequence of DGKα (P23743 whole entry, looked up): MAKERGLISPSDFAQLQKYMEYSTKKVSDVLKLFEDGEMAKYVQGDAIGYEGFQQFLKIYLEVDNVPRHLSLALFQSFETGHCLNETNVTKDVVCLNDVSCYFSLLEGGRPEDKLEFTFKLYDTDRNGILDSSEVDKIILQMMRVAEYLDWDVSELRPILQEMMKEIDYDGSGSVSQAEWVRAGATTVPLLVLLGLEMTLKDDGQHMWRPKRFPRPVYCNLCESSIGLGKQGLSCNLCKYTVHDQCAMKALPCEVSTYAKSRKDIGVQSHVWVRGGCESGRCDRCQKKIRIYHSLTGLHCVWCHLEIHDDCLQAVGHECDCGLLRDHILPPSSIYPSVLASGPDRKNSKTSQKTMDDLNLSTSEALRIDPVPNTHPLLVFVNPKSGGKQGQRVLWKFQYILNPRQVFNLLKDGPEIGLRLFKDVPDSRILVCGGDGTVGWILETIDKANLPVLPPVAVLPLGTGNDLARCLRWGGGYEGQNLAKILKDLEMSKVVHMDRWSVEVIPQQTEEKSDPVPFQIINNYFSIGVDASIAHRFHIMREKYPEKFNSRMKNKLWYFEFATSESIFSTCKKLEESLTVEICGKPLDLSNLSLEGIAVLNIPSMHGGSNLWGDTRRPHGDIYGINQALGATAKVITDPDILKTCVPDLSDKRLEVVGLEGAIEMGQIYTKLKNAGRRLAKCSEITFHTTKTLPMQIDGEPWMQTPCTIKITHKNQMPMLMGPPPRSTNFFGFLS
Sequence of human DGKζ (Q13574 whole entry, looked up): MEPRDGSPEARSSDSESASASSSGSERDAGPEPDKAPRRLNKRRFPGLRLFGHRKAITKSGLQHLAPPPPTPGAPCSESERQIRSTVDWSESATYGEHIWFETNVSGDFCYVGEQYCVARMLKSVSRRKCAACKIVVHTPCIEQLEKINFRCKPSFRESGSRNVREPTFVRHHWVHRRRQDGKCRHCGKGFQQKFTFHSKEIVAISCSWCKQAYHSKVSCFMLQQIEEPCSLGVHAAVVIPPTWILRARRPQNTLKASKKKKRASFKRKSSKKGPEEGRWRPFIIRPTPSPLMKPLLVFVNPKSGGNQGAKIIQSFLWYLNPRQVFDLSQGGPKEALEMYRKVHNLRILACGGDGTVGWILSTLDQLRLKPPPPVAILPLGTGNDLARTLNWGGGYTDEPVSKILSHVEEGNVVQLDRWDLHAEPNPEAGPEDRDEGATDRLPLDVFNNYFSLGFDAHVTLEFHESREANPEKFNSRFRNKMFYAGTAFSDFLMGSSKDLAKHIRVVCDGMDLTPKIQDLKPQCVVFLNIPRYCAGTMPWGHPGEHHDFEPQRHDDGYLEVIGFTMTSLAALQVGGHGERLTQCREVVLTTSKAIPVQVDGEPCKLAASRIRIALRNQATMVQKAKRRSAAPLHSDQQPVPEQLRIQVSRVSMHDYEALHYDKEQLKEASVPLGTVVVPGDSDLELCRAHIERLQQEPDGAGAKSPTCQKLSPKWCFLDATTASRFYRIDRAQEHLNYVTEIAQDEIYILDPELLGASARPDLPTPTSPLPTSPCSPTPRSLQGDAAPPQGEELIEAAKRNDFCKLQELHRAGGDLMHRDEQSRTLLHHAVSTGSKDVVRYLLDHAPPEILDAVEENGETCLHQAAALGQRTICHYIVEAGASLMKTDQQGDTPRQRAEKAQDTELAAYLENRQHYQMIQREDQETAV

SMILES	IC50 (DGKα; [3]) [µM]	IC50 (human DGKζ; read-out: DGKζ LIPGLO IC50) [µM]	EC50 [1, 5] [µM]	also measured
CC[C@@H]1CN(c2cc(=O)n(C)c3ccc(C#N)nc23)CC[C@H]1Oc1cccc(C(C)C)c1 (racemic) [Example 137, 8-((3R,4R)-3-ethyl-4-(3-isopropylphenoxy)piperidin-1-yl)-5-methyl-6-oxo-5,6-dihydro-1,5-naphthyridine-2-carbonitrile]	0.036	0.92		
CCC(C)(C)c1ccc(O[C@@H]2CCN(c3c(C#N)c(=O)n(C)c4ccc(C#N)nc34)C[C@H]2C)cc1 (racemic) [Example 229, (+/−) 5-methyl-8-(trans-3-methyl-4-(4-(tert-pentyl)phenoxy)piperidin-1-yl)-6-oxo-5,6-dihydro-1,5-naphthyridine-2,7-dicarbonitrile]				IC50 (DGKα; [4]): 0.28 µM; IC50 (human DGKζ; Table A, read-out: DGKζ): ≥ 250 µM
CCC(C)(C)c1ccc(O[C@@H]2CCN(c3cc(=O)n(C)c4ccc(C#N)nc34)C[C@H]2C)cc1 (single isomer, unassigned) [Example 84]	0.048	23	1.2	
C[C@@H]1CN(c2cc(=O)n(C)c3ccc(C#N)nc23)CC[C@H]1Oc1cccc(C2CC2)c1 (single isomer, unassigned) [Example 93]	0.3	18	5.9	
CC(C)c1ccc(O[C@@H]2CCN(c3cc(=O)n(C)c4ccc(C#N)nc34)C[C@H]2C)cc1 (single isomer, unassigned) [Example 95]	0.4	5	1	
CC(C)c1ccc(O[C@@H]2CCN(c3cc(=O)n(C)c4ccc(C#N)nc34)C[C@H]2C)cc1 (single isomer, unassigned) [Example 96]	0.057	20	2.6	
C[C@@H]1CN(c2cc(=O)n(C)c3ccc(C#N)nc23)CC[C@H]1Oc1ccc(C2CCCC2)cc1 (single isomer, unassigned) [Example 101]	0.43	6.8	1.4	
C[C@@H]1CN(c2cc(=O)n(C)c3ccc(C#N)nc23)CC[C@H]1Oc1ccc(C2CCCC2)cc1 (single isomer, unassigned) [Example 102]	0.068	83	3.3	
CC[C@@H]1CN(c2cc(=O)n(C)c3ccc(C#N)nc23)CC[C@H]1Oc1cccc(OC(F)(F)F)c1 (single isomer, unassigned) [Example 162]	1.7	1.1		
CC[C@@H]1CN(c2cc(=O)n(C)c3ccc(C#N)nc23)CC[C@H]1Oc1cccc(OC(F)(F)F)c1 (single isomer, unassigned) [Example 163]	0.042	0.36		
C[C@@H]1CN(c2cc(=O)n(C)c3ccc(C#N)nc23)CC[C@@H]1Oc1ccc(OC(C)(C)C)cc1 (single isomer, unassigned) [Example 173]	0.74		1.1	
C[C@@H]1CN(c2cc(=O)n(C)c3ccc(C#N)nc23)CC[C@@H]1Oc1ccc(OC(C)(C)C)cc1 (single isomer, unassigned) [Example 174]			3.6	IC50 (DGKα; read-out: DGKα LIPGLO IC50): 1.6 µM
CC[C@@H]1CN(c2cc(=O)n(C)c3ccc(C#N)nc23)CC[C@H]1Oc1ccc(OC(C)C)cn1 (single isomer, unassigned) [Example 193]				EC50 [1, 6]: 0.37 µM; EC50 [2]: 0.4 µM; IC50 (human DGKζ; Table A, read-out: DGKζ): 2.2 µM
CC[C@@H]1CN(c2cc(=O)n(C)c3ccc(C#N)nc23)CC[C@H]1Oc1ccc(OC(C)C)cn1 (single isomer, unassigned) [Example 194]				EC50 [1, 6]: 1.8 µM; EC50 [2]: 3 µM; IC50 (human DGKζ; Table A, read-out: DGKζ): 1.8 µM
CCC(C)(C)c1ccc(O[C@@H]2CCN(c3c(C#N)c(=O)n(C)c4ccc(C#N)nc34)C[C@H]2C)cc1 (single isomer, unassigned) [Example 230, 5-methyl-8-(trans-3-methyl-4-(4-(tert-pentyl)phenoxy)piperidin-1-yl)-6-oxo-5,6-dihydro-1,5-naphthyridine-2,7-dicarbonitrile (rel)]				IC50 (DGKα; [4]): 3.3 µM; IC50 (human DGKζ; Table A, read-out: DGKζ): ≥ 250 µM
COc1cc(F)ccc1OC1CCN(c2c(C#N)c(=O)n(C)c3ccc(Cl)nc23)CC1 [Example 36, 6-chloro-4-(4-(4-fluoro-2-methoxyphenoxy)piperidin-1-yl)-1-methyl-2-oxo-1,2-dihydro-1,5-naphthyridine-3-carbonitrile]	1.6	32		
Cn1c(=O)cc(N2CCC(Oc3ccc(C4CCCCC4)cc3)CC2)c2nc(C#N)ccc21 [Example 63, 8-(4-(4-cyclohexylphenoxy)piperidin-1-yl)-5-methyl-6-oxo-5,6-dihydro-1,5-naphthyridine-2-carbonitrile]	0.74	38		
Cn1c(=O)cc(N2CCC(Oc3ccc(C(F)(F)F)cn3)CC2)c2nc(C#N)ccc21 [Example 77, 5-methyl-6-oxo-8-(4-((5-(trifluoromethyl)pyridin-2-yl)oxy)piperidin-1-yl)-5,6-dihydro-1,5-naphthyridine-2-carbonitrile]	3	3		
C[C@@H]1CN(c2cc(=O)n(C)c3ccc(C#N)nc23)CC[C@H]1Oc1ccc(OC(C)(C)C)cc1 [Example 86, 8-((3R,4R)-4-(4-(tert-butoxy)phenoxy)-3-methylpiperidin-1-yl)-5-methyl-6-oxo-5,6-dihydro-1,5-naphthyridine-2-carbonitrile]			0.69	IC50 (DGKα; read-out: DGKα LIPGLO IC50): 0.72 µM
C[C@@H]1CN(c2cc(=O)n(C)c3ccc(C#N)nc23)CC[C@H]1Oc1ccc(OC(C)(C)C)cc1 [Example 87, 8-((3R,4R)-4-(4-(tert-butoxy)phenoxy)-3-methylpiperidin-1-yl)-5-methyl-6-oxo-5,6-dihydro-1,5-naphthyridine-2-carbonitrile]	0.05		2	
C[C@@H]1CN(c2cc(=O)n(C)c3ccc(C#N)nc23)CC[C@H]1Oc1c(F)cc(F)cc1F [Example 131, 5-methyl-8-((3R,4R)-3-methyl-4-(2,4,6-trifluorophenoxy)piperidin-1-yl)-6-oxo-5,6-dihydro-1,5-naphthyridine-2-carbonitrile]	3.1	≥ 250		
C[C@@H]1CN(c2cc(=O)n(C)c3ccc(C#N)nc23)CC[C@H]1Oc1cccc2c1OCCCO2 [Example 132, 8-((3R,4R)-4-((3,4-dihydro-2H-benzo[b][1,4]dioxepin-6-yl)oxy)-3-methylpiperidin-1-yl)-5-methyl-6-oxo-5,6-dihydro-1,5-naphthyridine-2-carbonitrile]	0.011	4.3		
CC[C@@H]1CN(c2cc(=O)n(C)c3ccc(C#N)nc23)CC[C@H]1Oc1cccc(C(F)(F)F)c1 [Example 140, 8-((3R,4R)-3-ethyl-4-(3-(trifluoromethyl)phenoxy)piperidin-1-yl)-5-methyl-6-oxo-5,6-dihydro-1,5-naphthyridine-2-carbonitrile]	0.13			EC50 [1, 7]: 1.2 µM
CC[C@@H]1CN(c2cc(=O)n(C)c3ccc(C#N)nc23)CC[C@@H]1Oc1cccc(C(C)C)c1 [Example 164, 8-((3R,4S)-3-ethyl-4-(3-isopropylphenoxy)piperidin-1-yl)-5-methyl-6-oxo-5,6-dihydro-1,5-naphthyridine-2-carbonitrile]				EC50 ([1]; Homo sapiens, 24 h, read-out: INFg Whole Blood Normalized Agonist EC50, human whole blood, anti-CD3 plus anti-CD28, 24 hours): 0.79 µM; IC50 ([2]; Homo sapiens, CD8 positive, read-out: DGK HWB pERK IC50): 5.1 µM
C[C@@H]1CN(c2cc(=O)n(C)c3ccc(C#N)nc23)CC[C@@H]1Oc1ccc(OC(C)(C)C)cc1 [Example 172, 8-((3R,4S)-4-(4-(tert-butoxy)phenoxy)-3-methylpiperidin-1-yl)-5-methyl-6-oxo-5,6-dihydro-1,5-naphthyridine-2-carbonitrile]				EC50 [1, 7]: 1.5 µM; IC50 (DGKα; read-out: DGKα LIPGLO IC50): 0.62 µM
C[C@@H]1CN(c2cc(=O)n(C)c3ccc(C#N)nc23)CC[C@@H]1Oc1cccc(C2CC2)c1 [Example 180, 8-((3R,4S)-4-(3-cyclopropylphenoxy)-3-methylpiperidin-1-yl)-5-methyl-6-oxo-5,6-dihydro-1,5-naphthyridine-2-carbonitrile]	0.045	1		
C[C@@H]1CN(c2cc(=O)n(C)c3ccc(C#N)nc23)CC[C@@H]1Oc1cccc(C2CC2)c1 [Example 181, 8-((3R,4S)-4-(3-cyclopropylphenoxy)-3-methylpiperidin-1-yl)-5-methyl-6-oxo-5,6-dihydro-1,5-naphthyridine-2-carbonitrile]	0.061	1.4		
CCc1cnc(O[C@H]2CCN(c3cc(=O)n(C)c4ccc(C#N)nc34)C[C@H]2C)nc1 [Example 221, 8-((3R,4S)-4-((5-ethylpyrimidin-2-yl)oxy)-3-methylpiperidin-1-yl)-5-methyl-6-oxo-5,6-dihydro-1,5-naphthyridine-2-carbonitrile]				IC50 (DGKα; [4]): 0.35 µM; IC50 (human DGKζ; Table A, read-out: DGKζ): 1.8 µM
CCO[C@@H]1CN(c2cc(=O)n(C)c3ccc(C#N)nc23)CC[C@H]1Oc1cccc(C(F)(F)F)c1 [Example 263, 8-((3R,4R)-3-ethoxy-4-(3-(trifluoromethyl)phenoxy)piperidin-1-yl)-5-methyl-6-oxo-5,6-dihydro-1,5-naphthyridine-2-carbonitrile]				EC50 [1, 6]: 0.18 µM; EC50 ([2]; Homo sapiens, CD8 positive): 0.2 µM
